IC50 data for 4 molecules are collected here from patent EP4768484A1, “HETEROCYCLIC FUSED RING COMPOUND, AND COMPOSITION AND USE THEREOF” (Shenzhen TargetRx, Inc., priority 2023, dated 2025).

Common to all, as to format: cell-based
The target in test [1] is T1, Ba/F3 BCR-ABL1 E255V/T315I (Homo sapiens, UniProt P00519+P11274, E255V/T315I).
T1 construct: BCR (N-terminal fusion partner of the oncoprotein); expressed in transfected cells; host or cells: Ba/F3 (lentiviral transduction, monoclonal line)
Kind of test: Cell growth inhibitory activity assay (CellTiter-Glo), Ba/F3 BCR-ABL1 E255V/T315I cells. To be noted: 72 h, CTG cell viability. In short, it runs like this: (§1)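 IC50 values come from nonlinear fitting of % inhibition against log concentration, with viability taken as ATP content by CellTiter-Glo. Parental Ba/F3 or Ba/F3 monoclonal lines expressing lentivirally introduced mutant BCR-ABL1 were dosed for 72 h; controls included 0.5% DMSO wells and a T0 plate.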
On the technique in general: ATP-based viability assays read luminescence as a measure of living cells.

Test [2] deals with T2, Ba/F3 BCR-ABL1 A337V (Homo sapiens, UniProt P00519+P11274, A337V).
T2 construct: BCR (N-terminal fusion partner of the oncoprotein); expressed in transfected cells; host or cells: Ba/F3 (lentiviral transduction, monoclonal line)
Kind of test: Cell growth inhibitory activity assay (CellTiter-Glo), Ba/F3 BCR-ABL1 A337V cells. As to conditions: 72 h, CTG cell viability. As to the method: (§2) In this assay, the Celltiter-Glo (CTG) kit provided by Promega was used, and it is a homogeneous cell viability assay method. The cell viability of cultured cells was measured by quantifying ATP. K562 cells were purchased from Nanjing Kebai, product number CBP60529; Ba/F3 parental cells were purchased from RIKEN BRC, product number RCB0805; other cells containing BCR-ABL1 WT, BCR-ABL1 T315I, BCR-ABL1 T315M, BCR-ABL1 Y253H/E255K, BCR-ABL1 E255V/T3151, BCR-ABL1 A424T, BCR-ABL1 A337V, BCR-ABL1 P465S, BCR-ABL1 V468F, and BCR-ABL1 I502L were all monoclonal engineered cell lines obtained by transducting Ba/F3 parental cells with the lentivirus plasmids containing WT or corresponding mutated BCR-ABL1.
(§3) The steps of cell viability assay are as follows: • a) Cells in logarithmic growth phase were collected. Cell suspension was prepared and the cells were counted. Concentration of the cells was calculated. • b) The cell suspension was diluted to the required concentration and then added to the middle wells of a 96-well plate, and PBS was added to the edge wells. The wells with no cells and only culture medium were used as blank controls. • c) In addition to the cell plate used for compound analysis, another 96-well plate was prepared as a T0 plate, and 3-6 blank wells and 3-6 cell wells were added. The next day, CTG was used to test the cell viability as the T0 viability value of the cells. • d) The cell plate was incubated at 37 °C in a 5% CO2 incubator overnight. • e) The next day, each concentration of a compound subjected to a gradient dilution was added, and the cell plate was incubated at 37 °C in a 5% CO2 incubator for 72 h. The wells with no compound and only 0.5% DMSO were used as positive controls for cell growth. • f) CTG reagent (CellTiter-Glo kit) was added according to the manufacturer's instructions to test the cell viability value. • g) The plate was read using Biotek cytation3.0 microplate reader and the data were exported. • h) IC50 was calculated using GraphPad Prism 7.0 software.
(§4) The IC50 (half-maximal inhibitory concentration) of the compound was obtained using the following nonlinear fitting formula: Y = Bottom + (Top−Bottom)/(1+10^(∧)((LogIC50−X)*HillSlope)) [formula] • X: Log value of the compound concentration • Y: Inhibition rate (% inhibition) • Top: Maximum response • Bottom: Baseline response • HillSlope: Slope of the curve
(§5) The formula for calculating cell inhibition rate (inhibition rate %) was: [formula]

The target in test [3] is T3, Ba/F3 BCR-ABL1 A424T (Homo sapiens, UniProt P00519+P11274, A424T).
T3 construct: BCR (N-terminal fusion partner of the oncoprotein); expressed in transfected cells; host or cells: Ba/F3 (lentiviral transduction, monoclonal line)
Kind of test: Cell growth inhibitory activity assay (CellTiter-Glo), Ba/F3 BCR-ABL1 A424T cells. As to conditions: 72 h, CTG cell viability. A digest of the protocol:
as §1

Test [4] addresses T4, Ba/F3 BCR-ABL1 WT (Homo sapiens, UniProt P00519+P11274).
T4 construct: BCR (N-terminal fusion partner of the oncoprotein); expressed in transfected cells; host or cells: Ba/F3 (lentiviral transduction, monoclonal line)
Kind of test: Cell growth inhibitory activity assay (CellTiter-Glo), Ba/F3 BCR-ABL1 WT cells. As to conditions: 72 h, CTG cell viability. In short, it runs like this:
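Ba/F3 lines stably transduced by lentivirus with WT or mutant BCR-ABL1, alongside untransduced parental Ba/F3, were seeded and incubated overnight at 37 °C, 5% CO2, then exposed to serially diluted compound for 72 h. Viability was read as ATP by CellTiter-Glo luminescence against a day-of-dosing T0 plate; IC50 from four-parameter nonlinear fit.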

Test [5] addresses T5, Ba/F3 BCR-ABL1 V468F (Homo sapiens, UniProt P00519+P11274, V468F).
T5 construct: BCR (N-terminal fusion partner of the oncoprotein); expressed in transfected cells; host or cells: Ba/F3 (lentiviral transduction, monoclonal line)
The experiment in a line: Cell growth inhibitory activity assay (CellTiter-Glo), Ba/F3 BCR-ABL1 V468F cells. As to conditions: 72 h, CTG cell viability. In short, it runs like this:
as §1

Test [6] has as its target T6, Ba/F3 BCR-ABL1 T315M (Homo sapiens, UniProt P00519+P11274, T315M).
T6 construct: BCR (N-terminal fusion partner of the oncoprotein); expressed in transfected cells; host or cells: Ba/F3 (lentiviral transduction, monoclonal line)
The experiment in a line: Cell growth inhibitory activity assay (CellTiter-Glo), Ba/F3 BCR-ABL1 T315M cells. As to conditions: 72 h, CTG cell viability. In short, it runs like this:
as §1

For test [7], the system named is K562 cells. Kind of test: Cell growth inhibitory activity assay (CellTiter-Glo), K562 cells. As to conditions: Homo sapiens, 72 h, CTG cell viability. In short, it runs like this: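 K562 cells in logarithmic growth were counted, diluted and plated in 96-well plates, with medium-only blanks and a separate T0 plate read by CTG the following day. After overnight incubation, graded compound concentrations were added for 72 h, with 0.5% DMSO wells as growth controls. Luminescence was read on a Biotek cytation3.0, and IC50 came from nonlinear fitting in GraphPad Prism 7.0.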

Test [8] has as its target T7, Ba/F3 BCR-ABL1 T315I (Homo sapiens, UniProt P00519+P11274, T315I).
T7 construct: BCR (N-terminal fusion partner of the oncoprotein); expressed in transfected cells; host or cells: Ba/F3 (lentiviral transduction, monoclonal line)
The experiment in a line: Cell growth inhibitory activity assay (CellTiter-Glo), Ba/F3 BCR-ABL1 T315I cells. To be noted: 72 h, CTG cell viability. In short, it runs like this:
as §1

Test [9] concerns the target T8, Ba/F3 BCR-ABL1 Y253H/E255K (Homo sapiens, UniProt P00519+P11274, E255K/Y253H).
T8 construct: BCR (N-terminal fusion partner of the oncoprotein); expressed in transfected cells; host or cells: Ba/F3 (lentiviral transduction, monoclonal line)
The experiment in a line: Cell growth inhibitory activity assay (CellTiter-Glo), Ba/F3 BCR-ABL1 Y253H/E255K cells. As to conditions: 72 h, CTG cell viability. A digest of the protocol: as §1

The subject of test [10] is Ba/F3 parental cells. The experiment in a line: Cell growth inhibitory activity assay (CellTiter-Glo), Ba/F3 parental cells. As to conditions: Mus musculus, BaF3, 72 h, CTG cell viability, read-out: IC50 Ba/F3 BCR-ABL1 Parental. In short, it runs like this:
as §1

For test [11], the target named is T9, Ba/F3 BCR-ABL1 I502L (Homo sapiens, UniProt P00519+P11274, I502L).
T9 construct: BCR (N-terminal fusion partner of the oncoprotein); expressed in transfected cells; host or cells: Ba/F3 (lentiviral transduction, monoclonal line)
Kind of test: Cell growth inhibitory activity assay (CellTiter-Glo), Ba/F3 BCR-ABL1 I502L cells. To be noted: 72 h, CTG cell viability. On the procedure:
as §2, §3, §4, §5

The target in test [12] is T10, Ba/F3 BCR-ABL1 P465S (Homo sapiens, UniProt P00519+P11274, P465S).
T10 construct: BCR (N-terminal fusion partner of the oncoprotein); expressed in transfected cells; host or cells: Ba/F3 (lentiviral transduction, monoclonal line)
Kind of test: Cell growth inhibitory activity assay (CellTiter-Glo), Ba/F3 BCR-ABL1 P465S cells. As to conditions: 72 h, CTG cell viability. On the procedure:
as §2, §3, §4, §5

`C[C@@H]1COCc2nc3cc(C(=O)Nc4ccc(OC(F)(F)Cl)cc4)cc(-c4cnc5c(c4)-c4nn(-c6cncnc6)cc4C5)c3n21` [T-66, (R)-N-(4-(chlorodifluoromethoxy)phenyl)-4-methyl-6-(2-(pyrimidin-5-yl)-2,4-dihydropyrazolo[3',4':3,4]cyclopenta[1,2-b]pyridin-7-yl)-3,4-dihydro-1H-benzo[4,5]imidazo[2,1-c][1,4]oxazine-8-carboxamide]: the IC50 in [1] is 50 to 1000 nM; in test [2], 50 to 1000 nM; in test [3], 5 to 50 nM; in test [4], at most 5 nM; in test [5] it was 50 to 1000 nM; in [6] it was over 1000 nM. The IC50 in test [7] was at most 5 nM; in [8] it was 5 to 50 nM; in [9] it was 50 to 1000 nM; in test [10] it was over 1000 nM; in test [11], 50 to 1000 nM; in test [12] it was 50 to 1000 nM.

In the case of `C[C@@H]1COCc2nc3cc(C(=O)Nc4ccc(OC(F)(F)Cl)cc4)cc(-c4cnc5c(c4)-c4c(cnn4-c4nccc(C#N)n4)C5)c3n21` [T-69-A, (R)-N-(4-(chlorodifluoromethoxy)phenyl)-6-(1-(4-cyanopyrimidin-2-yl)-1,4-dihydropyrazolo[3',4':3,4]cyclopenta[1,2-b]pyridin-7-yl)-4-methyl-3,4-dihydro-1H-benzo[4,5]imidazo[2,1-c][1,4]oxazine-8-carboxamide], the IC50 in test [1] is 5 to 50 nM; in test [2] it was 50 to 1000 nM; in test [3], 50 to 1000 nM; in test [4] it was at most 5 nM; in test [5], over 1000 nM; in test [6], 50 to 1000 nM. In addition, the IC50 was at most 5 nM in [7]; 5 to 50 nM in [8]; 5 to 50 nM in test [9]; over 1000 nM in test [10]; 50 to 1000 nM in [11]; 50 to 1000 nM in test [12].

As for `C[C@@H]1COCc2nc3cc(C(=O)Nc4ccc(OC(F)(F)Cl)cc4)cc(-c4cnc5c(c4)-c4nn(-c6nccc(C#N)n6)cc4C5)c3n21` [T-69-B, (R)-N-(4-(chlorodifluoromethoxy)phenyl)-6-(2-(4-cyanopyrimidin-2-yl)-2,4-dihydropyrazolo[3',4':3,4]cyclopenta[1,2-b]pyridin-7-yl)-4-methyl-3,4-dihydro-1H-benzo[4,5]imidazo[2,1-c][1,4]oxazine-8-carboxamide], the IC50 in test [1] was at most 5 nM; in test [2], 50 to 1000 nM; in test [3] it was 5 to 50 nM; in test [4] it was at most 5 nM; in test [5], 50 to 1000 nM; in test [6], at most 5 nM. Besides, the IC50 in [7] is at most 5 nM; in [8] it was at most 5 nM; in test [9], 5 to 50 nM; in test [10], over 1000 nM; in test [11], at most 5 nM; in test [12] it was 50 to 1000 nM.

Take `C[C@@H]1COCc2nc3cc(C(=O)Nc4ccc(OC(F)(F)Cl)cc4)cc(-c4cnc5c(c4)-c4nn(-c6cnccn6)cc4C5)c3n21` [T-71, (R)-N-(4-(chlorodifluoromethoxy)phenyl)-4-methyl-6-(2-(pyrazin-2-yl)-2,4-dihydropyrazolo[3',4':3,4]cyclopenta[1,2-b]pyridin-7-yl)-3,4-dihydro-1H-benzo[4,5]imidazo[2,1-c][1,4]oxazine-8-carboxamide]: the IC50 in test [1] was at most 5 nM; in [2] it was 50 to 1000 nM; in [3], 5 to 50 nM; in test [4], at most 5 nM; in test [5], 50 to 1000 nM; in test [6] it was 5 to 50 nM. Moreover, the IC50 was at most 5 nM in test [7]; at most 5 nM in test [8]; at most 5 nM in test [9]; over 1000 nM in test [10]; 5 to 50 nM in [11]; 50 to 1000 nM in test [12].
